In brackets after ≈: the same amount, converted by molar mass.
Assays:
Format in all cases: cell-based
E. coli W3110 = experiment: microbe, parasite or virus in culture; conditions: for MIC: Escherichia coli, W3110, 22 h, read-out: MIC E. coli W3110
E. coli W3110RL = experiment: microbe, parasite or virus in culture; conditions: E. coli with lpxC of R. leguminosarum; 22 hours at 37° C., MTT
P. aeruginosa (PAO1) = experiment: MIC, P. aeruginosa; conditions: for MIC P. aeruginosa (PAO1): 22 hours at 37° C., MTT; for MIC: Pseudomonas aeruginosa, PAO1, 22 h, read-out: MIC P. aeruginosa (PAO1)
E. coli W3110PA = experiment: microbe, parasite or virus in culture; conditions: E. coli with lpxC of P. aeruginosa; 22 hours at 37° C., MTT

Structure (SMILES): NC[C@H](NC(=O)c1ccc(C#CC#Cc2ccc(N)cc2)cc1)C(=O)NO [CPD-021, (2S)-3-amino-2-({4′-[4′-(4′-aminophenyl)buta-1′,3′-diyn-1-yl]phenyl}formamido)-N-hydroxypropanamide]
- MIC E. coli W3110 (E. coli W3110): B (key: A: <1 μg/mL; B: 1-10 μg/mL; C: 11-50 μg/mL; D: 51-100 μg/mL; E: >100 μg/mL)
- MIC E. coli W3110RL (E. coli W3110RL): E (>100 μg/mL)
- MIC P. aeruginosa (PAO1) (P. aeruginosa (PAO1)): B (1-10 μg/mL)
- MIC E. coli W3110PA (E. coli W3110PA): C (11-50 μg/mL)

Structure (SMILES): CC(C)[C@H](NC(=O)c1ccc(C#CC#Cc2ccc(N)cc2)cc1)C(=O)NO [CPD-022, (2S)-2-({4′-[4′-(4′-aminophenyl)buta-1′,3′-diyn-1′-yl]phenyl}formamido)-N-hydroxy-3-methylbutanamide]
- MIC E. coli W3110 (E. coli W3110): A (key: A: <1 μg/mL; B: 1-10 μg/mL; C: 11-50 μg/mL; D: 51-100 μg/mL; E: >100 μg/mL)
- MIC E. coli W3110RL (E. coli W3110RL): D (51-100 μg/mL)
- MIC P. aeruginosa (PAO1) (P. aeruginosa (PAO1)): B (1-10 μg/mL)
- MIC E. coli W3110PA (E. coli W3110PA): A (<1 μg/mL)

Structure (SMILES): CC[C@@H](C)[C@H](NC(=O)c1ccc(C#CC#Cc2ccc(N)cc2)cc1)C(=O)NO [CPD-023, (2S,3R)-2-({4′-[4′-(4′-aminophenyl)buta-1′,3′-diyn-1-yl]phenyl}formamido)-N-hydroxy-3-methylpentanamide]
- MIC E. coli W3110 (E. coli W3110): A (key: A: <1 μg/mL; B: 1-10 μg/mL; C: 11-50 μg/mL; D: 51-100 μg/mL; E: >100 μg/mL)
- MIC E. coli W3110RL (E. coli W3110RL): C (11-50 μg/mL)
- MIC P. aeruginosa (PAO1) (P. aeruginosa (PAO1)): D (51-100 μg/mL)
- MIC E. coli W3110PA (E. coli W3110PA): B (1-10 μg/mL)

Structure (SMILES): Nc1ccc(C#CC#Cc2ccc(C(=O)NCC(=O)NO)cc2)cc1 [CPD-024, 2-({4′-[4′-(4′-aminophenyl)buta-1′,3′-diyn-1′-yl]phenyl}formamido)-N-hydroxyacetamide]
- MIC E. coli W3110 (E. coli W3110): A (key: A: <1 μg/mL; B: 1-10 μg/mL; C: 11-50 μg/mL; D: 51-100 μg/mL; E: >100 μg/mL)
- MIC E. coli W3110RL (E. coli W3110RL): E (>100 μg/mL)
- MIC P. aeruginosa (PAO1) (P. aeruginosa (PAO1)): D (51-100 μg/mL)
- MIC E. coli W3110PA (E. coli W3110PA): C (11-50 μg/mL)

Structure (SMILES): Nc1ccc(C#CC#Cc2ccc(C(=O)N[C@@H](Cc3ccccc3)C(=O)NO)cc2)cc1 [CPD-025, (2S)-2-({4′-[4′-(4′-aminophenyl)buta-1′,3′-diyn-1′-yl]phenyl}formamido)-N-hydroxy-3-phenylpropanamide]
- MIC E. coli W3110 (E. coli W3110): B (key: A: <1 μg/mL; B: 1-10 μg/mL; C: 11-50 μg/mL; D: 51-100 μg/mL; E: >100 μg/mL)
- MIC E. coli W3110RL (E. coli W3110RL): E (>100 μg/mL)
- MIC P. aeruginosa (PAO1) (P. aeruginosa (PAO1)): D (51-100 μg/mL)
- MIC E. coli W3110PA (E. coli W3110PA): E (>100 μg/mL)

Structure (SMILES): CC(C)C[C@H](NC(=O)c1ccc(C#CC#Cc2ccc(N)cc2)cc1)C(=O)NO [CPD-026, (2S)-2-({4′-[4′-(4′-aminophenyl)buta-1′,3′-diyn-1-yl]phenyl}formamido)-N-hydroxy-4-methylpentanamide]
- MIC E. coli W3110 (E. coli W3110): B (key: A: <1 μg/mL; B: 1-10 μg/mL; C: 11-50 μg/mL; D: 51-100 μg/mL; E: >100 μg/mL)
- MIC E. coli W3110RL (E. coli W3110RL): E (>100 μg/mL)
- MIC P. aeruginosa (PAO1) (P. aeruginosa (PAO1)): E (>100 μg/mL)
- MIC E. coli W3110PA (E. coli W3110PA): E (>100 μg/mL)

Structure (SMILES): Nc1ccc(C#CC#Cc2ccc(C(=O)N[C@@H](CO)C(=O)NO)cc2)cc1 [CPD-027, (2S)-2-({4′-[4′-(4′-aminophenyl)buta-1′,3′-diyn-1′-yl]phenyl}formamido)-N,3-dihydroxypropanamide]
- MIC E. coli W3110 (E. coli W3110): A (key: A: <1 μg/mL; B: 1-10 μg/mL; C: 11-50 μg/mL; D: 51-100 μg/mL; E: >100 μg/mL)
- MIC E. coli W3110RL (E. coli W3110RL): C (11-50 μg/mL)
- MIC P. aeruginosa (PAO1) (P. aeruginosa (PAO1)): B (1-10 μg/mL)
- MIC E. coli W3110PA (E. coli W3110PA): B (1-10 μg/mL)

Structure (SMILES): C[C@@](O)(C(F)F)[C@H](NC(=O)c1ccc(C#Cc2ccc(CN3CCOCC3)cc2)cc1)C(=O)NO [CPD-069, N-((2S,3S)-4,4-difluoro-3-hydroxy-1-(hydroxyamino)-3-methyl-1-oxobutan-2-yl)-4-((4-(morpholinomethyl)phenyl)ethynyl)benzamide]
- MIC (E. coli W3110): < 1 µg/mL
- MIC (P. aeruginosa (PAO1)): 1 to 10 µg/mL (≈ 2.05 to 20.5 µM)

Structure (SMILES): Nc1ccc(C#CC#Cc2ccc(C(=O)N[C@@H]3CN(O)C3=O)cc2)cc1 [CPD-071, (R)-4-((4-aminophenyl)buta-1,3-diynyl)-N-(1-hydroxy-2-oxoazetidin-3-yl)benzamide]
- MIC (E. coli W3110): 1 to 10 µg/mL (≈ 2.9 to 29 µM)
- MIC (P. aeruginosa (PAO1)): 51 to 100 µg/mL (≈ 148 to 290 µM)

Structure (SMILES): C[C@](O)(c1c[nH]nn1)C(NC(=O)c1ccc(C#CC#Cc2ccc(N)cc2)cc1)C(=O)NO (stereo partly drawn) [CPD-072, 4-((4-aminophenyl)buta-1,3-diynyl)-N-((3R)-3-hydroxy-1-(hydroxyamino)-1-oxo-3-(1H-1,2,3-triazol-4-yl)butan-2-yl)benzamide]
- MIC (E. coli W3110): < 1 µg/mL
- MIC (P. aeruginosa (PAO1)): < 1 µg/mL

Structure (SMILES): C[C@@](N)(C(F)F)C(NC(=O)c1ccc(C#CC#Cc2ccc(N)cc2)cc1)C(=O)NO (stereo partly drawn) [CPD-079, N-((3S)-3-amino-4,4-difluoro-1-(hydroxyamino)-3-methyl-1-oxobutan-2-yl)-4-((4-aminophenyl)buta-1,3-diynyl)benzamide]
- MIC (E. coli W3110): < 1 µg/mL
- MIC (P. aeruginosa (PAO1)): < 1 µg/mL

Structure (SMILES): C[C@@](N)(C(F)F)[C@H](NC(=O)c1ccc(C#Cc2ccc(CN3CCOCC3)cc2)cc1)C(=O)NO [CPD-080, N-((2S,3S)-3-amino-4,4-difluoro-1-(hydroxyamino)-3-methyl-1-oxobutan-2-yl)-4-((4-(morpholinomethyl)phenyl)ethynyl)benzamide]
- MIC (E. coli W3110): < 1 µg/mL
- MIC (P. aeruginosa (PAO1)): < 1 µg/mL

Reference: patent publication US9738604B2, “Ethynylbenzene derivatives” (Duke University, priority 2010, dated 2017)
